Calls of active or inactive are those of the source. The rule behind the calls is not given here.
Legend:
SH-SY5Y [1] = assay: Cell cycle arrest in human SH-SY5Y cells assessed as accumulation of cells at S phase at 2 uM measured after 24 hrs by PI staining based flowcytometry method (reference value: 27.69%); assay type: functional
Homo sapiens [2] = species: Homo sapiens; assay: Inhibition of human Aurora kinase at 1 uM
[3] = target: T1, ALK tyrosine kinase receptor (Homo sapiens, UniProt Q9UM73); assay: Inhibition of ALK in human MDA-MB-231 cells assessed as inhibition of ALK phosphorylation at Tyr1278 residue measured after 24 hrs by Western blot assay; assay type: cell-based; conditions: dose 1-4 µM
T1 sequence (Q9UM73 19-1620 limits assumed): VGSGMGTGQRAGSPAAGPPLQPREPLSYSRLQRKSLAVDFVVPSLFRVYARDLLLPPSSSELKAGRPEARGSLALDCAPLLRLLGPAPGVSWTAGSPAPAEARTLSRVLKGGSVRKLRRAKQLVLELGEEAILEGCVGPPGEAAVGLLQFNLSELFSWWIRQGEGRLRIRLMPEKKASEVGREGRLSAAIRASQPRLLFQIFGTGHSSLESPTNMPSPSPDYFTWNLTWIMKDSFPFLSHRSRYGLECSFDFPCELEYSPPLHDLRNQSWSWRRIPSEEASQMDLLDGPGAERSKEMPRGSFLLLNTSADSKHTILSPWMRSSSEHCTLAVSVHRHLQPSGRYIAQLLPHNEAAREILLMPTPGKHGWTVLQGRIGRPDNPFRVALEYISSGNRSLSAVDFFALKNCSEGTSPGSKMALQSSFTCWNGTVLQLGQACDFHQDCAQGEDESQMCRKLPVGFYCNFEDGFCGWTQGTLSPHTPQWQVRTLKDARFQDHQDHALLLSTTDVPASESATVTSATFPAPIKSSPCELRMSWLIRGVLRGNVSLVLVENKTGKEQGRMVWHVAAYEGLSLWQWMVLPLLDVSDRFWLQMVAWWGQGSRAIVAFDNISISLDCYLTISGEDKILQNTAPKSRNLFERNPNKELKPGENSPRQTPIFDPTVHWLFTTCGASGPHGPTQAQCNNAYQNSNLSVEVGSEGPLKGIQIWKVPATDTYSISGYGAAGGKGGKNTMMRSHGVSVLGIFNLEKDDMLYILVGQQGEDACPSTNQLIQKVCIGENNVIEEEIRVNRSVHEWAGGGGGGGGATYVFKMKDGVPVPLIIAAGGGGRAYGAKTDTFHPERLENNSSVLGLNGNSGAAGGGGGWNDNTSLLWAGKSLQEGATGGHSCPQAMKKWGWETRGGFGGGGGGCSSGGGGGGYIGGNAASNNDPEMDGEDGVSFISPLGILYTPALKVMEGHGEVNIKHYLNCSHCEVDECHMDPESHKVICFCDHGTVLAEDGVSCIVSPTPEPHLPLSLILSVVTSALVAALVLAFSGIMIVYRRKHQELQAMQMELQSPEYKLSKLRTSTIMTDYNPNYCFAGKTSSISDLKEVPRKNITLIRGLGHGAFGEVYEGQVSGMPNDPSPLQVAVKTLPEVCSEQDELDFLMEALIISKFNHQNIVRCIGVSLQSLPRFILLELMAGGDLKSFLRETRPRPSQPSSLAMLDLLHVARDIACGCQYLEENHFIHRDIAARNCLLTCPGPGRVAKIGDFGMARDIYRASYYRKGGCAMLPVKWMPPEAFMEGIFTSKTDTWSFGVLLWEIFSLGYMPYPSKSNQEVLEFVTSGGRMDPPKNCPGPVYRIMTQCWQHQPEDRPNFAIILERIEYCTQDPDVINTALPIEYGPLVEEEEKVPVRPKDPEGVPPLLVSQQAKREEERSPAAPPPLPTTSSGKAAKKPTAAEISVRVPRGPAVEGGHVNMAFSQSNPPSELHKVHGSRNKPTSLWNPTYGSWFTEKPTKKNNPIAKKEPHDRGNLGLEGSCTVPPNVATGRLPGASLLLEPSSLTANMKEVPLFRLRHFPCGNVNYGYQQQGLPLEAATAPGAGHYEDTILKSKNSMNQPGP

SH-SY5Y [4] = assay: Induction of apoptosis in human SH-SY5Y cells assessed as late apoptotic cells at 2 uM measured after 24 hrs by Annexin V-FITC/PI staining based flowcytometry (reference value: 14.32%); assay type: functional
[5] = target: T1, ALK tyrosine kinase receptor; assay: Inhibition of ALK in human MDA-MB-231 cells assessed as inhibition of ALK phosphorylation at Tyr1278 residue at 4 uM measured after 24 hrs by Western blot assay; assay type: cell-based
cells = assay type: functional, cell-based; conditions: Homo sapiens, SKNBE2, 72 h
Description: Antiproliferative activity against human SKNBE2 cells harboring wild type ALK assessed as inhibition of cell proliferation measured after 72 hrs by CCK8 assay

[6] = Potency index, ratio of ceritinib IC50 to test compound IC50 for human SKNBE2 cells harboring wild type ALK assessed as inhibition of cell proliferation measured after 72 hrs by CCK8 assay; assay type: functional
SH-SY5Y [7] = assay: Induction of apoptosis in human SH-SY5Y cells assessed as early apoptotic cells at 1 uM measured after 24 hrs by Annexin V-FITC/PI staining based flowcytometry (reference value: 0.82%); assay type: functional
Homo sapiens [8] = species: Homo sapiens; assay: Inhibition of human FLT at 1 uM
MDA-MB-231 [9] = assay: Induction of apoptosis in human MDA-MB-231 cells assessed as viable cells at 2 uM measured after 24 hrs by Annexin V-FITC/PI staining based flowcytometry (reference value: 93.14%); assay type: functional; conditions: read-out: Activity
[10] = MRT (0 to infinity) in Sprague-Dawley rat at 1 mg/kg, iv measured for 12 hrs by LC-MS/MS analysis; assay type: ADME, organism-based; conditions: in vivo
[11] = target: Histone deacetylase (Homo sapiens) (UniProt Q13547+O15379+Q9UBN7+Q92769+Q9UQL6+Q8WUI4+Q9BY41+Q96DB2+P56524+Q9UKV0+Q969S8); assay: Inhibition of HDAC in human SH-SY5Y cells assessed as increase of intracellular acetylated histone H3 level at 1 to 4 uM measured after 24 hrs by Western blot assay; assay type: cell-based; conditions: dose 1-4 µM
MDA-MB-231 [12] = assay: Induction of apoptosis in human MDA-MB-231 cells assessed as late apoptotic cells at 2 uM measured after 24 hrs by Annexin V-FITC/PI staining based flowcytometry ( Rvb = 5.28%); assay type: functional
Homo sapiens [13] = species: Homo sapiens; assay: Inhibition of human CDK at 1 uM
SH-SY5Y [14] = assay: Induction of apoptosis in human SH-SY5Y cells assessed as viable cells at 2 uM measured after 24 hrs by Annexin V-FITC/PI staining based flowcytometry (reference value: 77.05%); assay type: functional; conditions: read-out: Activity
MDA-MB-231 [15] = assay: Potency index, ratio of crizotinib IC50 to test compound IC50 for human MDA-MB-231 cells assessed as inhibition of cell proliferation measured after 72 hrs by CCK8 assay; assay type: functional
SH-SY5Y [16] = assay: Inhibition of colony formation in human SH-SY5Y cells at 0.1 to 0.4 uM incubated for 3 days followed by incubation in drug-free medium for 12 days by crystal violet staining based assay; assay type: functional, cell-based; conditions: dose 0.1-0.4 µM, time 3.0 day
[17] = target: ALK tyrosine kinase receptor (Homo sapiens, UniProt Q9UM73, G1202R)
Chain of ALK tyrosine kinase receptor (Homo sapiens, UniProt Q9UM73, G1202R) (Q9UM73 19-1620 G1202R limits assumed): as the sequence (Q9UM73 19-1620 limits assumed) above, with G1184R counted along it

MDA-MB-231 [18] = assay: Induction of apoptosis in human MDA-MB-231 cells assessed as necrotic cells at 1 uM measured after 24 hrs by Annexin V-FITC/PI staining based flowcytometry (reference value: 0.94%); assay type: functional
[19] = target: T1, ALK tyrosine kinase receptor; assay: Inhibition of ALK (unknown origin) at 100 nM preincubated for 10 mins followed by addition of substrate and ATP for 25 mins by caliper EZ reader method; conditions: time 35.0 min
NCI-H2228 = assay: Potency index, ratio of ceritinib IC50 to test compound IC50 for human NCI-H2228 cells harboring EML4/ALK […] assessed as inhibition of cell proliferation measured after 72 hrs by CCK8 assay; assay type: functional
A549 = assay: Potency index, ratio of ceritinib IC50 to test compound IC50 for human A549 cells assessed as inhibition of cell proliferation measured after 72 hrs by CCK8 assay; assay type: functional
SH-SY5Y [20] = assay: Cell cycle arrest in human SH-SY5Y cells assessed as accumulation of cells at G1 phase at 2 uM measured after 24 hrs by PI staining based flowcytometry method (reference value: 59.8%); assay type: functional
SH-SY5Y [21] = assay: Cell cycle arrest in human SH-SY5Y cells assessed as accumulation of cells at G2 phase at 4 uM measured after 24 hrs by PI staining based flowcytometry method (reference value: 13.23%); assay type: functional
MDA-MB-231 [22] = assay: Cell cycle arrest in human MDA-MB-231 cells assessed as accumulation of cells at G1 phase at 1 uM measured after 24 hrs by PI staining based flowcytometry method (reference value: 55.32%); assay type: functional
[23] = target: ALK tyrosine kinase receptor (Homo sapiens, UniProt Q9UM73, L1196M)
Chain of ALK tyrosine kinase receptor (Homo sapiens, UniProt Q9UM73, L1196M) (Q9UM73 19-1620 L1196M limits assumed): as the sequence (Q9UM73 19-1620 limits assumed) above, with L1178M counted along it

[24] = target: T1, ALK tyrosine kinase receptor; assay: Inhibition of ALK in human MDA-MB-231 cells assessed as inhibition of Akt phosphorylation at Ser473 residue measured after 24 hrs by Western blot assay; assay type: cell-based; conditions: dose 1-4 µM
[25] = system: ALK tyrosine kinase receptor (Homo sapiens), Q9UM73 [G1202R]; assay: Potency index, ratio of ceritinib IC50 to test compound IC50 for inhibition of ALK G1202R mutant (unknown origin)
Chain of ALK tyrosine kinase receptor (Homo sapiens), Q9UM73 [G1202R] (Q9UM73 whole entry G1202R): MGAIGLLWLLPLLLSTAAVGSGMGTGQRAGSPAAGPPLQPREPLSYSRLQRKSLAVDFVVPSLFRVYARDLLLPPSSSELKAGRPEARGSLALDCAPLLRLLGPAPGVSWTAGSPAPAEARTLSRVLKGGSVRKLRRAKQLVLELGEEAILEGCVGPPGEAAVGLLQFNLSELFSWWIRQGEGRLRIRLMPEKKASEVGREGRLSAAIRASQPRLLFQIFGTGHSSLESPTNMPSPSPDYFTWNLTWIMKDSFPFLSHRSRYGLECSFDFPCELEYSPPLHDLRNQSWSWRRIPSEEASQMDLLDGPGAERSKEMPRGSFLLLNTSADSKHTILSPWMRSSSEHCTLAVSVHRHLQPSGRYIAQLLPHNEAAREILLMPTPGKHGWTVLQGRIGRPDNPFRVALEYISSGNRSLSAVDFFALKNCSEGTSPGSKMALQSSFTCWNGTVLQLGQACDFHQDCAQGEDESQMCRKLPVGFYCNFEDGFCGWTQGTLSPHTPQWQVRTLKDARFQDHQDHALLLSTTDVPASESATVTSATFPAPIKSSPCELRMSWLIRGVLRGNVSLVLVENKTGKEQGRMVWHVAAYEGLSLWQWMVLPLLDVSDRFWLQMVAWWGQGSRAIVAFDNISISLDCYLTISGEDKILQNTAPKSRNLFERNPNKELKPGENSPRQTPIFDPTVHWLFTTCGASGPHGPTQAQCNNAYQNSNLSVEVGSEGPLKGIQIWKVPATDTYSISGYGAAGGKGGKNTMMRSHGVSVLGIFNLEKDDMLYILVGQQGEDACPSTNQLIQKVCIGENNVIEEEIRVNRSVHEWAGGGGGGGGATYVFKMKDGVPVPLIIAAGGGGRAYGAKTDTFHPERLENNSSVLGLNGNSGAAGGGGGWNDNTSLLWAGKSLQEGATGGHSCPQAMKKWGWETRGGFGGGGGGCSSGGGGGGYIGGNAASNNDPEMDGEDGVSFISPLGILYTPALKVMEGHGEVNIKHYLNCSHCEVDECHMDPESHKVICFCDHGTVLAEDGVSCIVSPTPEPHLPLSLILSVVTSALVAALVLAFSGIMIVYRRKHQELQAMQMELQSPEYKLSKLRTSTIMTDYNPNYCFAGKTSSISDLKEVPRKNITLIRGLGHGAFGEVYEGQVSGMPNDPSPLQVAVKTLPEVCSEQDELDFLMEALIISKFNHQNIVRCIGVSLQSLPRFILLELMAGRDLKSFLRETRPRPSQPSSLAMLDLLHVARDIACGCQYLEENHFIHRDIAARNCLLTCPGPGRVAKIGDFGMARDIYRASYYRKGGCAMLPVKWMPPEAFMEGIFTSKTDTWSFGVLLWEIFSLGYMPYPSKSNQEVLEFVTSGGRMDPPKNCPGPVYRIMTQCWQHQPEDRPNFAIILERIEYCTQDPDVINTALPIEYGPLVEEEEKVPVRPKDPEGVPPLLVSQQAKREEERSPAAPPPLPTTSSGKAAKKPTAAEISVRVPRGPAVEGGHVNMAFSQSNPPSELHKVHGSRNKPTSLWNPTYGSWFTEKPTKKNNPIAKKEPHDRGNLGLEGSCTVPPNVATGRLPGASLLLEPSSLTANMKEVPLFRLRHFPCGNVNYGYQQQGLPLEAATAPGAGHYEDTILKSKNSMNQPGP

[26] = Volume of distribution at steady state in Sprague-Dawley rat at 1 mg/kg, iv measured for 12 hrs by LC-MS/MS analysis; assay type: ADME, organism-based; conditions: in vivo
MDA-MB-231 [27] = assay: Cell cycle arrest in human MDA-MB-231 cells assessed as accumulation of cells at G2 phase at 1 uM measured after 24 hrs by PI staining based flowcytometry method (reference value: 23.89%); assay type: functional
MDA-MB-231 [28] = assay: Induction of apoptosis in human MDA-MB-231 cells assessed as early apoptotic cells at 1 uM measured after 24 hrs by Annexin V-FITC/PI staining based flowcytometry ( Rvb = […]%); assay type: functional
[29] = target: T1, ALK tyrosine kinase receptor; assay: Inhibition of human ALK in human SH-SY5Y cells assessed as inhibition of Akt phosphorylation at Ser473 residue measured after 24 hrs by Western blot assay; assay type: cell-based; conditions: dose 1-4 µM
HepG2 = assay: Potency index, ratio of ceritinib IC50 to test compound IC50 for human HepG2 cells assessed as inhibition of cell proliferation measured after 72 hrs by CCK8 assay; assay type: functional
MDA-MB-231 [30] = assay: Cell cycle arrest in human MDA-MB-231 cells assessed as accumulation of cells at S phase at 2 uM measured after 24 hrs by PI staining based flowcytometry method (reference value: 20.81%); assay type: functional
MDA-MB-231 [31] = assay: Potency index, ratio of ceritinib IC50 to test compound IC50 for human MDA-MB-231 cells assessed as inhibition of cell proliferation measured after 72 hrs by CCK8 assay; assay type: functional

CC(C)S(=O)(=O)c1ccccc1Nc1nc(Nc2ccc(NC(=O)CCCCCCC(=O)NO)cc2)ncc1Cl
Activity (SH-SY5Y [1]): 20.49%
inhibition (Homo sapiens [2]): 95%
inhibition [3]: Dose-Dependent Effect
Activity (SH-SY5Y [4]): 28.89%
inhibition [5]: Active
IC50 (cells): 50 nM
Ratio IC50 [6]: 3
Activity (SH-SY5Y [7]): 1.21%
inhibition (Homo sapiens [8]): Active
viability at 2 µM (MDA-MB-231 [9]): 85.1%
MRT [10]: 7.8 min
inhibition [11]: Active
Activity (MDA-MB-231 [12]): 7.72%
inhibition (Homo sapiens [13]): 95%
viability at 2 µM (SH-SY5Y [14]): 58.6%
Ratio IC50 (MDA-MB-231 [15]): 3
inhibition (SH-SY5Y [16]): Active
IC50 [17]: 0.4 nM
Activity (MDA-MB-231 [18]): 1.36%
inhibition [19]: 96.6%
Ratio IC50 (NCI-H2228): 3
Ratio IC50 (A549): 3
Activity (SH-SY5Y [20]): 3.56%
Activity (SH-SY5Y [21]): 88.07%
Activity (MDA-MB-231 [22]): 35.05%
IC50 [23]: 1.7 nM
inhibition [24]: Dose-Dependent Effect
Ratio IC50 [25]: 10
Vdss [26]: 3.3 L/kg
Activity (MDA-MB-231 [27]): 32.53%
Activity (MDA-MB-231 [28]): 1.96%
inhibition [29]: Dose-Dependent Effect
Ratio IC50 (HepG2): 3
Activity (MDA-MB-231 [30]): 21.32%
Ratio IC50 (MDA-MB-231 [31]): 3

Source: ChEMBL document CHEMBL4828709, “Discovery of 2,4-pyrimidinediamine derivatives as potent dual inhibitors of ALK and HDAC” (Eur J Med Chem, 2021)
